Experimental findings from publication PMC3412845, “Waking Action of Ursodeoxycholic Acid (UDCA) Involves Histamine and GABAA Receptor Block” (PLoS ONE, 2012) are described below.

The subject of one assay is GABAA receptor. Nature of the assay: Voltage dependence of GABAAR block (Woodhull analysis). The format is cell-based. The following applies: Woodhull fit, Eq. 3; for Kd: read-out: KD(0), dissociation constant at 0 mV. On the procedure:
Voltage dependence of GABAAR block by UDCA was analysed according to the method of Woodhull, which provides a means of calculating the fraction of the transmembrane field sensed by charged blocking ligand at its acceptor site.

A further assay relates to NMDA receptors. The assay is described as follows: NMDA-evoked currents in isolated neurons. The format is cell-based. The following applies: D-AP5 100 µM. On the procedure:
(§1) Recordings from histaminergic neurons in male Wistar rat (22–26 day old) or 30–60 day old mouse (SV129, histidine decarboxylase deficient HDC−/− or their wild type littermates) hypothalamic slices were performed as previously described. Slices were obtained between 9 and 11 a.m. In the beginning of whole-cell voltage clamp recordings TMN neurons were identified with the help of DIC microscopy and electrophysiological criteria as previously described. Inhibitory postsynaptic currents (IPSCs) were evoked by local stimulation through a bipolar stainless-steel stimulating electrode (50 µm; WPI, UK). The stimulation of axonal endings coming to TMN from ventrolateral preoptic area (VLPO) was done as described in [22]. Visual identification of histaminergic neurons recorded in cell-attached configuration (see [16]) was confirmed by the significant reduction of firing rate by the histamine 3 (H3) receptor agonist R-α-methylhistamine (0.2 µM), which was performed at the end of each experiment. Individual neurons were separated by vibrodissociation after brief preincubation with papain from the hypothalamic slices of mice or rats and identified as TMN neurons according to their size and shape. Identification was confirmed post hoc with the single-cell RT-PCR (all data presented in the manuscript were obtained from histidine decarboxylase-expressing neurons), [40]. TMN neurons from HDC−/− mice were identified by the expression of peripherin [16]. Whole-cell voltage-clamp recordings from isolated neurons were done with an EPC-9 amplifier and TIDA for Windows (HEKA, Lambrecht, Germany) at room temperature. Membrane potentials were not corrected for liquid junction potential (5.6 mV, calculated with LJPCalc, Barry, 1994). The intracellular solution was composed of (in mM) 140 KCl, 2 MgCl2, 0.5 CaCl2, 5 EGTA, 2 ATP and 10 HEPES (pH 7.2 adjusted with NaOH). A fast perfusion technique was used for application of ligands and modulators of fast ionotropic receptors, [41]. […] EC50 is the ligand concentration producing a half-maximal response, [ligand] is ligand concentration, and n is the Hill slope. Hill coefficients were obtained from the slope of the log/log plot of the dose-response curves. […] Steady-state amplitudes of the responses were used for the construction of dose-response plots if not mentioned otherwise.
For the testing of UDCA action at NMDA receptors a maximal 0.2 mM concentration of agonist was used. Recordings were done in Mg^2+ -free solution in the presence of 10 µM of glycine. NMDA-currents were abolished by the NMDA receptor antagonist D-AP5 (100 µM).

The subject of assay [1] is TMN neurons (eIPSCs and sIPSCs). Nature of the assay: Spontaneous and evoked IPSCs in TMN neurons in brain slices. The format is cell-based, rat. Conditions: gabazine 10 µM, n = 5. On the procedure: as §1, with “Visual identification of histaminergic neurons recorded in cell-attached configuration (see [16]) was confirmed by the significant reduction of firing rate by the histamine 3 (H3) receptor agonist R-α-methylhistamine (0.2 µM), which was performed at the end of each experiment.” left out

Assay [2] deals with isolated TMN neurons (sIPSCs). The assay is described as follows: sIPSCs in acutely isolated and cultured neurons. Conditions: gabazine. It counts as cell-based. As to the method:
as §1, with “Visual identification of histaminergic neurons recorded in cell-attached configuration (see [16]) was confirmed by the significant reduction of firing rate by the histamine 3 (H3) receptor agonist R-α-methylhistamine (0.2 µM), which was performed at the end of each experiment.” left out

Assay [3] has as its target T1, α1V256Sβ2γ2L GABAA receptors (UniProt P22723+P62813+P63138, V283S).
T1 construct: expressed in transfected cells; host or cells: HEK293
Nature of the assay: Patch-clamp of mutant α1V256Sβ2γ2L GABAAR in HEK293 cells. The format is cell-based, rat α1V256S, rat β2, mouse γ2L. Conditions: pregnenolone sulphate 10 µM. As to the method:
(§2) HEK 293 cells were obtained from DSM (Deutsche Sammlung von Mikroorganismen und Zellkulturen GmbH, DSM, Braunschweig). They were grown and maintained according to published standard protocols. Briefly, cells were grown in minimal essential medium supplemented with 10% fetal bovine serum, 100units/ml penicillin and streptomycin and 2 mM L-glutamine and splitted once per week. Semiconfluent cells were transfected on the third day after splitting with the help of Lipofectamine 2000 (Invitrogen), recordings were done 48–72 hrs after transfection.
(§3) The GABAAR subunit cDNAs, generously donated by G.Gisselmann (rat α1, mouse γ2L, rat β1, β2 and human β3 [26]) and J.H. Steinbach (rat α1V256S [28] and rat α1Q241L [44]), were subcloned into pcDNA3 (Invitrogen, Karlsruhe, Germany) and applied in a ratio 1∶1∶1 for the α1βxγ2L receptor and 1∶1 for α1β3 or β3γ2L receptors. […] For each receptor type patch clamp recordings were obtained from at least three separate transfections. Whole-cell patch clamp recordings were done in a similar extracellular solution as for the native cells (see above) except that the concentration of MgCl2 was reduced to 1.2 mM. Intracellular electrodes contained 140 mM CsCl (instead of KCl), pH adjusted with CsOH. The voltage was held at −40 mV.
(In general: The patch-clamp technique gives a direct electrical read-out from membranes.)

Assay [4] addresses T2, α1β2γ2L GABAA receptors (WT) (UniProt P22723+P62813+P63138).
T2 construct: expressed in transfected cells; host or cells: HEK293
Nature of the assay: Patch-clamp of recombinant wild-type α1β2γ2L GABAAR in HEK293 cells. It counts as cell-based, rat α1, rat β2, mouse γ2L. Conditions: pregnenolone sulphate 10 µM. On the procedure: as §2, §3

The test system of assay [5] is cultured hypothalamic neurons. Nature of the assay: Microelectrode array (MEA) recordings of cultured hypothalamic neurons. The format is cell-based, mouse. The following applies: with GABAA receptor antagonist gabazine. On the procedure:
Primary dissociated cultures of posterior hypothalamus were prepared from newborn mice according to the protocols previously described, [43]. […] Recordings were done between 11th-21st day after plating. […] Signals from all 60 electrodes were simultaneously sampled at 25 kHz, visualized and stored using the standard software […] provided by Multi Channel Systems. Spike detection and analysis was performed offline with the software […] (RESULT Medizinische […], Germany), which uses the agreement coefficient “Cohen's kappa” (κ) to assess the degree of spike and burst synchrony for selected pairs of electrodes. […] In order to describe the distribution of kappa across the whole MEA, we calculated the mean of all kappa-values obtained for pairs of “active” electrodes. At the beginning of experiments the basal medium was replaced by a magnesium-free HEPES-based recording solution (see above) and measurements were started after a 20 min adaptation phase. Every measurement comprised three recordings - control, test substance and washout (second control) - each two minutes long and separated by an intermediate period of 30 seconds.

In assay [6] the test system is GABAA receptors of HDC−/− TMN neurons. The assay is described as follows: GABA-evoked whole-cell currents in TMN neurons from HDC−/− mice. The format is cell-based, mouse. On the procedure:
as §1, with “Visual identification of histaminergic neurons recorded in cell-attached configuration (see [16]) was confirmed by the significant reduction of firing rate by the histamine 3 (H3) receptor agonist R-α-methylhistamine (0.2 µM), which was performed at the end of each experiment.” left out

For the next assay, the system named is native GABAA receptors. The assay is described as follows: GABA-evoked whole-cell currents in acutely isolated TMN neurons (wild type). It counts as cell-based, mouse. On the procedure:
as §1, with “Visual identification of histaminergic neurons recorded in cell-attached configuration (see [16]) was confirmed by the significant reduction of firing rate by the histamine 3 (H3) receptor agonist R-α-methylhistamine (0.2 µM), which was performed at the end of each experiment.” left out

In general, Kd refers to the equilibrium constant for the complex coming apart. The EC50 is the concentration giving half of the maximal effect.

T2 sequence (P62813 28-455): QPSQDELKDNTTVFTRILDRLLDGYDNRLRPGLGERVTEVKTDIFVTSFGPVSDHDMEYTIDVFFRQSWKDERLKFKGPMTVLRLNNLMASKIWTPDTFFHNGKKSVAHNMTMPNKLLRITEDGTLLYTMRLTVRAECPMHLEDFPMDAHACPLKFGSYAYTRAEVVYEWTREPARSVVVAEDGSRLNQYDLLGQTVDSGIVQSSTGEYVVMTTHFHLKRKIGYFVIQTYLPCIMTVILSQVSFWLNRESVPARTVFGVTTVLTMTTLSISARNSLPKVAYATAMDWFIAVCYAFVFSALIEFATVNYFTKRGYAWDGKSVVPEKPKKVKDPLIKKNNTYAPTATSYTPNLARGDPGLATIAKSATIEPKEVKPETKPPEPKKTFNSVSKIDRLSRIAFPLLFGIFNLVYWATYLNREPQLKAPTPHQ
T2 sequence (P63138 25-474 limits assumed): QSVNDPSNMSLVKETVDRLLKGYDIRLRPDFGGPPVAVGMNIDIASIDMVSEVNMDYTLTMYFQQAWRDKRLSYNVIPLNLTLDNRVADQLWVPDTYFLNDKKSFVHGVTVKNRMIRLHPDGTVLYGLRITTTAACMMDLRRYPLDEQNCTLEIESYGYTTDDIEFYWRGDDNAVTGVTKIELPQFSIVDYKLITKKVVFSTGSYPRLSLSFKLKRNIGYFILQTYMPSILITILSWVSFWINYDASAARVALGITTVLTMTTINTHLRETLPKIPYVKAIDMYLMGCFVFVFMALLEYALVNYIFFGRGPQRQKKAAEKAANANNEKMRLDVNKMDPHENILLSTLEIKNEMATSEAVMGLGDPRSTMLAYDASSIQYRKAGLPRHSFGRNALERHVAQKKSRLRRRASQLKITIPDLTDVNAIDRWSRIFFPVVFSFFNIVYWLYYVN
T2 sequence (P22723 39-474): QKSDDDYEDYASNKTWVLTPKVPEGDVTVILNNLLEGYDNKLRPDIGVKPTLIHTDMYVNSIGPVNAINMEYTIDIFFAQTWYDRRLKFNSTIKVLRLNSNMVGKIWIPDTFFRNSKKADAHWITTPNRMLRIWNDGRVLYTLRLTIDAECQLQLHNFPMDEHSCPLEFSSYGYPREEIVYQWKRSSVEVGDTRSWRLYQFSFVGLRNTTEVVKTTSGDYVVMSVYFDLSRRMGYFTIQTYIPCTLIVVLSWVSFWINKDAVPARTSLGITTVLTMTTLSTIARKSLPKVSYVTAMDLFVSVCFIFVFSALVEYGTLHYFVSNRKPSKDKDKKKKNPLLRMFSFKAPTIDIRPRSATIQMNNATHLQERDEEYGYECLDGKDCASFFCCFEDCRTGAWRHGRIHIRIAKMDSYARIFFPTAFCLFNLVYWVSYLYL
T1 sequence (P62813 28-455 V283S): as the sequence (P62813 28-455) above, with V256S counted along it
T1 sequence (P63138 25-474 limits assumed): as the sequence (P63138 25-474 limits assumed) above
T1 sequence (P22723 39-474): as the sequence (P22723 39-474) above

On to `C[C@H](CCC(=O)O)[C@H]1CC[C@H]2[C@@H]3[C@H](O)C[C@@H]4C[C@H](O)CC[C@]4(C)[C@H]3CC[C@]12C` [CDOC, chenodeoxycholate], for which, in the assay with GABAA receptor, the “fraction of the transmembrane field sensed at the acceptor site (f)” value (“fraction” for short) came out at 0.33±0.02 and the Kd was 42 µM.

As for `NC(CCCP(=O)(O)O)C(=O)O` [D-AP5], the NMDA-currents result in the assay on NMDA receptors was “abolished”.

As for `COc1ccc(-c2ccc(=N)n(CCCC(=O)O)n2)cc1` [Gabazine, gabazine], the “eIPSCs and sIPSCs” value in assay [1] is “abolished”. The “GABAergic sIPSCs in isolated TMN neuron” value in [2] is recorded as “abolished”.

For `CC(=O)C1CCC2C3CC=C4CC(OS(=O)(=O)O)CCC4(C)C3CCC12C` (centres unmarked) [Pregnenolone sulphate, pregnenolone sulphate], the “steady-state amplitude of maximal GABA-currents” value in assay [3] is 82±6 % of control; in assay [4], 11±3 % of control.

Regarding `C[C@H](CCC(=O)NCCS(=O)(=O)O)[C@H]1CC[C@H]2[C@@H]3[C@@H](O)C[C@@H]4C[C@H](O)CC[C@]4(C)[C@H]3CC[C@]12C` [TUDC, tauroursodeoxycholate], in [5], the “effect on synchronization in the presence of gabazine” value was “blanks the effect”.

As for `C[C@H](CCC(=O)O)[C@H]1CC[C@H]2[C@@H]3[C@H](O)C[C@@H]4C[C@H](O)CC[C@]4(C)[C@H]3C[C@H](O)[C@]12C` [cholate], in the assay with GABAA receptor, the “fraction” value came out at 0.3±0.02 and the Kd turned out to be 710 µM.

In the case of `C[C@H](CCC(=O)O)[C@H]1CC[C@H]2[C@@H]3C(=O)C[C@@H]4CC(=O)CC[C@]4(C)[C@H]3CC(=O)[C@]12C` [dehydrocholate], in the assay with GABAA receptor, the “fraction” value was 0.33±0.03 and the Kd came to 1400 µM.

Take `CC1CC(C)(c2ccccc2)OC(C)O1` (centres unmarked) [vertacetal]: the EC50 turned out to be 9.2 ± 3 µM in assay [6] (HDC−/− neurons, n = 5, read-out: EC50 of GABAAR modulation by vertacetal) and 13.4 ± 2.6 µM in the assay on native GABAA receptors (wild type neurons, n = 5, read-out: EC50 of GABAAR modulation by vertacetal).

Regarding `Cc1ccc(-c2nc3ccc(C)cn3c2CC(=O)N(C)C)cc1` [zolpidem], in [6], the “modulation of GABAAR, HDC+/+ versus HDC−/− TMN neurons” value is recorded as “No difference”.

Regarding picrotoxin, the “use dependence of block of GABA currents” value in the assay on native GABAA receptors was “use-dependent block”. In addition, the “reversibility of block of GABA currents” value with native GABAA receptors (GABA 10 µM, 1 s) is listed as “not fully reversible”.
